Source: patent publication US8658604B2, “Template-fixed beta-hairpin peptidomimetics with protease inhibitory activity” (Polyphor Ltd, priority 2005, dated 2014)
Where a SMILES comes first, the peptide text is derived from it.

Tests used:
[1] = target: Tryptase, from human lung; experiment: Enzymatic assay, tryptase; details: read-out: Tryptase IC50
[2] = target: Trypsin, from human pancreas (Homo sapiens, UniProt P07477); experiment: Enzymatic assay, trypsin
[3] = target: T1, CathepsinG, from human neutrophils (Homo sapiens, UniProt P08311); experiment: Enzymatic assay, cathepsin G; details: Cathepsin G IC50
T1 sequence (P08311 21-244): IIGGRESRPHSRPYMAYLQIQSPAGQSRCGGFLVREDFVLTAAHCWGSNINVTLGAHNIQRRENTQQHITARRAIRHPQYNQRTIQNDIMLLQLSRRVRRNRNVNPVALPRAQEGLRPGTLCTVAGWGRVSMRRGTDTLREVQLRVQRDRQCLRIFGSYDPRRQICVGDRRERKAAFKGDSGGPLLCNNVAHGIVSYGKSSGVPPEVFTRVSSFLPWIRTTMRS

CC[C@H](C)[C@@H]1NC(=O)[C@@H]2CCCN2C(=O)[C@H]2CCCN2C(=O)[C@H](CCCNC(=N)N)NC(=O)[C@@H]2CSSC[C@H](NC1=O)C(=O)N[C@@H]([C@@H](C)O)C(=O)N[C@@H](CCCCN)C(=O)N[C@@H](CO)C(=O)N[C@@H](CCc1ccccc1)C(=O)N1CCC[C@H]1C(=O)N1CCC[C@H]1C(=O)N[C@@H]([C@@H](C)CC)C(=O)N2 [Ex. 181] (HELM PEPTIDE1{I.C.T.K.S.[O=C([C@H](CCc1ccccc1)N[*:1])[*:2]].P.P.I.C.R.[dP].P}$PEPTIDE1,PEPTIDE1,2:R3-10:R3|PEPTIDE1,PEPTIDE1,1:R1-13:R2$$$V2.0)
IC50 [1]: 0.04 µM | IC50 [2]: 0.113 µM | IC50 [3]: 0.127 µM

CC[C@H](C)[C@@H]1NC(=O)[C@@H]2CCCN2C(=O)[C@H]2CCCN2C(=O)[C@H](CCCNC(=N)N)NC(=O)[C@@H]2CSSC[C@H](NC1=O)C(=O)N[C@@H]([C@@H](C)O)C(=O)N[C@@H](CCCCN)C(=O)N[C@@H](CO)C(=O)N[C@@H](CC1CCCCC1)C(=O)N1CCC[C@H]1C(=O)N1CCC[C@H]1C(=O)N[C@@H]([C@@H](C)CC)C(=O)N2 [Ex. 182] (HELM PEPTIDE1{I.C.T.K.S.[Cha].P.P.I.C.R.[dP].P}$PEPTIDE1,PEPTIDE1,2:R3-10:R3|PEPTIDE1,PEPTIDE1,1:R1-13:R2$$$V2.0)
IC50 [1]: 0.039 µM | IC50 [2]: 0.059 µM | IC50 [3]: 0.111 µM

CC[C@H](C)[C@@H]1NC(=O)[C@@H]2CCCN2C(=O)[C@H]2CCCN2C(=O)[C@H](CCCNC(=N)N)NC(=O)[C@@H]2CSSC[C@H](NC1=O)C(=O)N[C@@H]([C@@H](C)O)C(=O)N[C@@H](CCCCN)C(=O)N[C@@H](CO)C(=O)N[C@@H](Cc1ccc(O)cc1)C(=O)N1CCC[C@H]1C(=O)N1CCC[C@H]1C(=O)N[C@@H]([C@@H](C)CC)C(=O)N2 [Ex. 183] (HELM PEPTIDE1{I.C.T.K.S.Y.P.P.I.C.R.[dP].P}$PEPTIDE1,PEPTIDE1,2:R3-10:R3|PEPTIDE1,PEPTIDE1,1:R1-13:R2$$$V2.0)
IC50 [1]: 0.025 µM | IC50 [2]: 0.146 µM | IC50 [3]: 0.243 µM

CC[C@H](C)[C@@H]1NC(=O)[C@@H]2CCCN2C(=O)[C@@H]2CCCN2C(=O)[C@H](CC(C)C)NC(=O)[C@H](CO)NC(=O)[C@H](CCCCN)NC(=O)[C@H]([C@@H](C)O)NC(=O)[C@@H]2CSSC[C@H](NC1=O)C(=O)N[C@@H](CCCNC(=N)N)C(=O)N1CCC[C@@H]1C(=O)N1CCC[C@H]1C(=O)N[C@@H](Cc1ccccc1)C(=O)N2 [Ex. 184] (HELM PEPTIDE1{F.C.T.K.S.L.P.P.I.C.R.[dP].P}$PEPTIDE1,PEPTIDE1,2:R3-10:R3|PEPTIDE1,PEPTIDE1,1:R1-13:R2$$$V2.0)
IC50 [1]: 0.027 µM | IC50 [2]: 0.048 µM | IC50 [3]: 0.221 µM

CC[C@H](C)[C@@H]1NC(=O)[C@@H]2CCCN2C(=O)[C@H]2CCCN2C(=O)[C@H](CCCNC(=N)N)NC(=O)[C@@H]2CSSC[C@H](NC1=O)C(=O)N[C@@H]([C@@H](C)O)C(=O)N[C@@H](CCCCN)C(=O)N[C@@H](CO)C(=O)N[C@@H](CC(C)C)C(=O)N1CCC[C@H]1C(=O)N1CCC[C@H]1C(=O)N[C@@H](CCCNC(=N)N)C(=O)N2 [Ex. 185] (HELM PEPTIDE1{I.C.T.K.S.L.P.P.R.C.R.[dP].P}$PEPTIDE1,PEPTIDE1,2:R3-10:R3|PEPTIDE1,PEPTIDE1,1:R1-13:R2$$$V2.0)
IC50 [1]: 0.014 µM | IC50 [2]: 0.126 µM | IC50 [3]: 0.514 µM

CC[C@H](C)[C@@H]1NC(=O)[C@@H]2CCCN2C(=O)[C@H]2CCCN2C(=O)[C@H](CCCNC(=N)N)NC(=O)[C@@H]2CSSC[C@H](NC1=O)C(=O)N[C@@H]([C@@H](C)O)C(=O)N[C@@H](CCCCN)C(=O)N[C@@H](CO)C(=O)N[C@@H](CC(C)C)C(=O)N1CCC[C@H]1C(=O)N1CCC[C@H]1C(=O)N[C@@H](CCCCN)C(=O)N2 [Ex. 186] (HELM PEPTIDE1{I.C.T.K.S.L.P.P.K.C.R.[dP].P}$PEPTIDE1,PEPTIDE1,2:R3-10:R3|PEPTIDE1,PEPTIDE1,1:R1-13:R2$$$V2.0)
IC50 [1]: 0.015 µM | IC50 [2]: 0.099 µM | IC50 [3]: 0.337 µM
